# Reference: patent US20140328762A1, “Fluorogenic Peptide Probes and Assays” (priority 2011, published 2014)
# pKd: −log10 of the molar value. Like-named read-outs stand apart in the source and are kept apart here.
# What was measured:
# AP-1 DNA [1] = test: Absorbance spectra of GCN4 beacons with AP-1 DNA; format: binding; conditions: 1 μM beacon, 10 μM DNA
# Description: FIGS. 2A and 2B show line graphs of absorbance versus wavelength (nm). […] All samples contain 1 μM beacon, and concentration for DNA is 10 μM.
# (§1) The AP-1 DNA and AT DNA were used for GCN-4 beacons binding assays as the target and control DNAs, respectively. Rex aptamer and TAR RNA were used for Rex beacon binding assays as the target and control RNAs, respectively. For detailed structures of Rex aptamer and TAR RNA, refer to PDB 1EXY and 1MNB, respectively.
# As shown by the shifted absorbance peaks (i.e. shift of highest peak) in FIGS. 2A and 2B, both GCN4 225/237 and GCN4 225/244 beacons allow formation of TAMRA H-dimer. […] The GCN4 225/244 beacon was selected for further characterization.
# AP-1 DNA [2] = test: Fluorescence titration of GCN4 beacon with AP-1 DNA; format: binding; conditions: titration of 100 nM beacon with increasing concentration of AP-1 DNA
# Description: (§2) Samples contain 100 nM GCN4 225/244 beacon and indicated concentration of DNA.
# as §1
# AT DNA = test: Fluorescence titration of GCN4 beacon with AT DNA (negative control); format: binding; conditions: 100 nM beacon
# Description: as §2, §1
# MBP-E3 = MBP-E3 (Escherichia coli, UniProt P0AEX9); conditions: data not shown
# Text: (§3) The application of using the K3-b1b3 beacon for detection of E3-fusion proteins has also been tested. For this purpose, a recombinant maltose binding protein (MBP) with E3 fused at its C-terminal end was created.
# unlabeled JunLZ-Lb1b4 = test: Non-specific fluorescence enhancement (crosstalk) assay, FIG. 14A, with unlabeled JunLZ-Lb1b4; format: binding; conditions: 100 nM beacon, 10 μM unlabeled JunLZ-Lb1b4, 580 nm, excitation 520 nm
# Description: (§4) FIGS. 14A and 14B show bar graphs of relative fluorescence intensity versus different peptide beacons. Non-specific fluorescence enhancement of peptide beacons by various unrelated coiled coil-forming peptides is shown. All reagents other than the beacons are loaded to 10 μM. The data represent relative fluorescence intensity at 580 nm (bandwidth 20 nm) collected by excitation at 520 nm (band width 15 nm). (FIG. 14A) All samples contain 100 nM K3-b1b3 beacon. Columns A, B, C, D, E are beacon only, beacon with unlabeled JunLZ-Lb1b4, beacon with unlabeled FosLZ, beacon with unlabeled GCN4 244, and beacon with E3 peptide, respectively. […] Column A, B, C, D, E are beacon only, beacon with unlabeled K3-b1b3 peptide, beacon with E3 peptide, beacon with unlabeled GCN4 244, beacon with FosLZ.
# (§5) So a concern about the binding specificity naturally arises. […] It is not a surprising result, since both peptides have leucine residues at all d positions, and that multiple electrostatic interactions exist between […].
# E3 peptide [3] = test: Fluorescence titration of K3-b1b3 beacon with E3 peptide; format: binding
# Description: (§6) All spectra data were obtained with Safire II microplate reader (TECAN). Data was acquired right after mixing the beacon with its target.
# To further characterize the K3-b1b3 beacon, titration of lower concentration (10 nM) of K3-b1b3 beacon has also been performed.
# wild-type MBP = wild-type MBP (Escherichia coli, UniProt P0AEX9); conditions: data not shown
# Text: as §6, §3
# FosLZ = molecular target: T1, FosLZ (Homo sapiens, UniProt P01100); test: Non-specific fluorescence enhancement (crosstalk) assay, FIG. 14, with FosLZ; format: binding; conditions: 100 nM beacon, 10 μM FosLZ, 580 nm, excitation 520 nm
# T1 construct: TDTLQAE TDQLEDE KSALQTE IANLLKE KEKLEFI LA; made in house; host or cells: E. coli BL21(DE3)
# Description: as §4, §5
# unlabeled GCN4 244 = molecular target: T2, unlabeled GCN4 244 (Saccharomyces cerevisiae, UniProt P03069, A244C/S225C); test: Non-specific fluorescence enhancement (crosstalk) assay, FIG. 14, with unlabeled GCN4 244; format: binding, yeast; conditions: 100 nM beacon, 10 μM unlabeled GCN4 244, 580 nm, excitation 520 nm
# T2 construct: […]; MKQLEDK; GGSGG linker (internal); made in house; host or cells: E. coli BL21(DE3)
# Description: as §4, §5
# E3 peptide [4] = test: Non-specific fluorescence enhancement (crosstalk) assay, FIG. 14, with E3 peptide; format: binding; conditions: 100 nM beacon, 10 μM E3 peptide, 580 nm, excitation 520 nm
# Description: as §4, §5
# [5] = test system: unrelated coiled coil-forming peptides; test: Crosstalk of beacon with unrelated peptides, overall; format: binding; conditions: FIG. 14
# Description: as §4, §5
# E3 peptide [6] = conditions: cited from earlier work
# E3 peptide [7] = test: CD spectra analysis of binding between unlabeled K3-b1b3 and E3 peptides; conditions: curve fitting
substance,measurement,setting,value
"GCN4 225/244 beacon: GCN4 bZip S225C/A244C (SEQ ID NO: 27), fused to C-terminal end of MBP, TAMRA labelled",change of absorbance spectrum in the presence of AP-1 DNA,AP-1 DNA [1],significant alteration of its absorbance spectrum
same,maximum fluorescence increase,AP-1 DNA [2],4.3 fold
same,effect of AT DNA on fluorescence,AT DNA,no effects
K ICALKAK IAALKAK ICALKAGY (SEQ ID NO: 12) with two 6-TAMRA fluorophores attached at the cysteines via maleimide [K3-b1b3 beacon],binding by gel-shift assay,MBP-E3,Specific binding
same,fluorescence enhancement compared with the beacon only sample,unlabeled JunLZ-Lb1b4,1.5 fold
same,pKd,"E3 peptide [3]; curve fitting, 1 μM beacon titration, read-out: Kd value for binding between K3-b1b3 beacon and E3 peptide",6.12
same,pKd,"E3 peptide [3]; curve fitting, titration of 10 nM beacon, read-out: Kd value for binding between K3-b1b3 beacon and E3 peptide",6.13
same,pKd,"E3 peptide [3]; read-out: Kd, result of 1 μM beacon titration (restated), 1 μM beacon titration",6.12
same,maximum fluorescence enhancement,E3 peptide [3]; titration of 1 μM K3-b1b3 beacon with E3 peptide,about 12 fold
same,effect on fluorescence emission of the beacon,wild-type MBP,does not have effects
same,fluorescence enhancement compared with the beacon only sample,FosLZ,1.6 fold
same,fluorescence enhancement compared with the beacon only sample,unlabeled GCN4 244,1.2 fold
same,fluorescence enhancement compared with the beacon only sample,E3 peptide [4],7.0 fold
same,non-specific fluorescence enhancement by unrelated peptides,[5],no significant non-specific fluorescence enhancement
original K3 peptide K IAALKEK IAALKEK IAALKE (SEQ ID NO:29),pKd,"E3 peptide [6]; literature value restated in Example 4, read-out: Kd value for binding between the K3 and E3 peptides",7.15
same,pKd,"E3 peptide [6]; reported in the literature, read-out: Kd value for binding between the original K3 and E3 peptides",7.15
unlabeled modified K3 peptide K ICALKAK IAALKAK ICALKA GY (SEQ ID NO:12) [K3-b1b3],pKd,E3 peptide [7],7.35
